Data as given in patent publication US9474749B2 (priority 2004, dated 2016).

Legend:
BACE-1 = BACE-1 mRNA expression in HTB-11 cells (RT-PCR)
Experimental: (§1) SH-SY5Y human neuroblastoma cells (ATCC, USA) were cultured in Dulbecco's modified Eagle's medium/Ham's nutrient mixture (DMEM-F12) (Invitrogen, USA), and HTB-11 human neuroblastoma cells (ATCC, USA) were cultured in Minimum Essential Medium Alpha Medium (MEM-α) (Invitrogen, USA). […] All treatments were performed under a sterile hood.
(§2) After the treatment time-period, cells were harvested, and total RNA was extracted using RNeasy RNA Isolation kit (Qiagen) following the manufacturer's procedures. Total RNA yield was determined using a Spectrophotometer RNA/DNA calculator (Pharmacia Biotech). Total RNA concentration was then standardized for semi-quantitative RT-PCR, which was carried out in a Geneamp Thermocycler PCR System 9700 (P.E. Applied Biosystems). […] PCR products and a 100 bp DNA marker were then loaded in a 2% agarose gel stained with ethidium bromide. Gel electrophoresis was performed using a power-supply (E-C Apparatus Corp.) set at 110V with constant amperage for 1.5 hours. Gels were then photographed using a Gel Documentation System (UVP), and bands analyzed using Gel-Pro Analyzer (MediaCybernetics) on a P4 Windows machine.

BACE-2 = BACE-2 mRNA expression in HTB-11 cells (RT-PCR)
Experimental: as §1, §2

[1] = test system: Mytilus edulis pedal ganglia; assay: Endogenous morphine levels in excised pedal ganglia incubated in vitro (HPLC, RIA); type: cell-based; conditions: for morphine per ganglion wet weight / ganglionic morphine levels versus control: in vitro; for morphine per ganglion wet weight: 5-hydroxytryptophan 1 μg/gm tissue, vehicle 2.1±0.44; for effect of enzyme inhibitor on precursor-induced morphine production: quinidine with tyramine, AMPT with tyrosine, concentration dependent; for morphine in ganglia: 10 μg of each compound, control 11.9; for ganglionic morphine levels versus control: 50 and 100 ng, 60 minutes; for ganglionic morphine levels after in vitro incubation: ganglionic wet weight, before: 1.08±0.27 (tyramine), 0.96±0.31 (tyrosine); for share of added precursor converted to morphine: in vitro ganglia incubation; for ganglionic morphine levels after exposure: 10^−6 M (FIG. 20)
[2] = test system: Mytilus edulis pedal ganglia; assay: Ganglionic morphine levels after injection into the foot of intact animals; conditions: for pedal ganglionic morphine levels after injection: one hour after injection into the foot; for morphine levels after injection of inhibitor alone: 10^−4 M via the foot; for ganglionic morphine levels after injection: 10^−5 M in the foot, one hour, controls 1.02±0.24; for decrease in ganglionic morphine levels when the respective enzyme inhibitor was topically applied: AMPT or quinidine 10^−4 M on pedal ganglia after amino acid injection
Experimental: For in vivo precursor injection experiments, the animal's foot was injected with either reticuline or L-DOPA (0.1 and 1 μg/injection, respectively). Chemicals were injected by BD 1 cc syringes with 26 G needles. Each needle was inserted into that base of the foot just above the pedal ganglia.
(§3) For in vivo treatments, the animal's foot (20 animals per treatment) was injected with tyrosine (10^−5 M), tyramine (10^−5 M), or saline. Other animals were exposed to the enzyme inhibitors AMPT or quinidine alone or immediately following the respective foot injection. […] All chemicals were purchased from Sigma (St. Louis, Mo.).

pedal ganglia = assay: NO release from excised pedal ganglia (NO-selective microprobe); type: cell-based, Mytilus edulis; conditions: for NO Peak Level / NO Peak Time: ligand 10^−7 M
Experimental: For the nitric oxide assay, ten pedal ganglia (per determination) dissected from M. edulis were bathed in 1 mL sterile phosphate buffered saline (PBS). […] For the opiate receptor antagonist experiments, ganglia were pretreated with naloxone for 10 minutes prior to reticuline addition. NO release was monitored with an NO-selective microprobe manufactured by World Precision Instruments (Sarasota, Fla.). The sensor was positioned approximately 100 μm above the respective tissue surface. […] The NO detection system was calibrated daily. The probe was allowed to equilibrate for 10 minutes in the incubation medium free of tissue before being transferred to vials containing the ganglia for another 5 minutes. Manipulation and handling of the ganglia was only performed with glass instruments. Data was acquired using the Apollo-4000 free radical analyzer (World Precision Instruments, Sarasota, Fla.). The experimental values were then transferred to Sigma-Plot and -Stat (Jandel, Calif.) for graphic representation and evaluation.

mu3 opiate receptor = target: T1, mu3 opiate receptor (Homo sapiens, UniProt P35372); assay: biochemical; type: binding
T1 construct: An additional 100 excised pedal ganglia and the human monocytes were separately washed and homogenized; host or cells: human monocytes
T1 sequence (P35372 1-314 isoform P35372-14): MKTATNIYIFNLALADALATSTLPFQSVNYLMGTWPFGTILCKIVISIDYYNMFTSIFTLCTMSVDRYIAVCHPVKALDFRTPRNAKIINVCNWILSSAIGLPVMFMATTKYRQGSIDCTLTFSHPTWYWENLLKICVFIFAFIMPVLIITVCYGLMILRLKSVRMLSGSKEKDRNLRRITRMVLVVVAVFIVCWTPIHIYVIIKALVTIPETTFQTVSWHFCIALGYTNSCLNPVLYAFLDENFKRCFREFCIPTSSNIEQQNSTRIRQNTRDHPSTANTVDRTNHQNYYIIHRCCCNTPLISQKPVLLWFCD
Experimental: For the nitric oxide assay, ten pedal ganglia (per determination) dissected from M. edulis were bathed in 1 mL sterile phosphate buffered saline (PBS). […] NO release was monitored with an NO-selective microprobe manufactured by World Precision Instruments (Sarasota, Fla.). The sensor was positioned approximately 100 μm above the respective tissue surface. […] The NO detection system was calibrated daily. The probe was allowed to equilibrate for 10 minutes in the incubation medium free of tissue before being transferred to vials containing the ganglia for another 5 minutes. Manipulation and handling of the ganglia was only performed with glass instruments. Data was acquired using the Apollo-4000 free radical analyzer (World Precision Instruments, Sarasota, Fla.). The experimental values were then transferred to Sigma-Plot and -Stat (Jandel, Calif.) for graphic representation and evaluation.
An additional 100 excised pedal ganglia and the human monocytes were separately washed and homogenized in 50 volumes of 0.32 M sucrose, pH 7.4, at 4° C. using a Brinkmann polytron (30 seconds, setting no. 5). The crude homogenate was centrifuged at 900×g for 10 minutes at 4° C., and the supernatant was reserved on ice. The whitish crude pellet was resuspended by homogenization (15 seconds, setting no. 5) in 30 volumes of 0.32 M sucrose/Tris-HCl buffer, pH 7.4, and centrifuged at 900×g for 10 minutes. The extraction procedure was repeated one more time, and the combined supernatants were centrifuged at 900×g for 10 minutes. The resulting supernatants (S1′) were used immediately. […] The P2 pellet was then re-suspended with a Dounce hand-held homogenizer (10 strokes) in 100 volumes of buffer. […]
Aliquots of membrane suspension (0.2 mL, 0.12 mg of membrane protein) were incubated in triplicate at 22° C. for 40 minutes with the appropriate radiolabeled ligand in the presence of dextrorphan (10 mM) or levorphanol (10 mM) in 10 mM Tris-HCl buffer, pH 7.4, containing 0.1% BSA and 150 mM KCl. […] Protein concentration was determined in membrane suspensions (prepared in the absence of BSA).

[3] = test system: human white blood cells / PMNs; assay: Morphine production by human WBC and PMNs (HPLC, RIA); type: cell-based; conditions: for WBC morphine concentrations versus untreated cells: P<0.001; for Morphine levels in media after the cells were removed: PMNs 3×10^6 cells, THP 100 μg, reticuline 50 μg, L-DOPA 100 μg, L-tyrosine 100 μg; for morphine concentrations in WBC: one-hour treatment, control 12.33±5.64
PMNs = assay: PMN activation level by computer-assisted image analysis (form factor); conditions: for level of PMN activation: IL-1β 2 ng/mL one hour, L-DOPA 10^−6 M, untreated 7.3±2.1%
Experimental: The morphological measurements of PMNs were based on cell area and perimeter determinations by the use of image analysis software (Compix, Mars, Pa.). […] The observational area used for measurement determinations and frame-grabbing was 0.4 μm in diameter.
After this incubation, the PMNs were evaluated for their activity level via computer-assisted image analysis.

[4] = test system: Mytilus edulis ganglia and hemolymph; assay: Dopamine levels in ganglia and hemolymph (HPLC UV)
Experimental: Mytilus edulis collected from the local waters of Long Island Sound were maintained as described herein. […] The pedal ganglia were incubated with and without tyrosine or tyramine in the presence of quinidine, a CYP2D6 inhibitor, and alpha methyl para tyrosine (AMPT), which inhibits tyrosine hydroxylase.
as §3
After ganglionic dissection, ganglia were pooled into one eppendorf tube, 1 ml of 1 N HCl was added, and the tissue was sonicated by sonic dismemberator (Fisher scientific, USA). Homogenized tissue was then transferred to a 15 mL polypropylene centrifuge tube (Fisher Scientific, PA, USA). 5 mL of chloroform/isopropanol (9:1, v/v) was added, and the contents of the tube vigorously vortexed for 5 minutes at room temperature. […] Supernatant (water soluble layer) was dispatched into pre-siliconized 1.5 tubes (Midwest Scientific) and kept at 4° C. for immediate use for HPLC determination or stored at −80° C. for further analysis.

[5] = test system: SK-N-SH neuroblastoma cell line; type: cell-based, human
Experimental: Cell viability was determined via Trypan blue exclusion. An inverted light microscope (Nikon) with a phase-contrast filter was used to observe the cells. Pictures of the cells were taken via a digital camera (Optronix) attached to the microscope ocular. Images were uploaded onto ImagePro Plus Software (Applied Biosystems), where cell viability was calculated based on both the number of cells covering the field and the cells that present as dead from the stain. In addition, ImagePro Plus was used for determining cellular morphology. The area and perimeter were found and used in the formula (4π*Area)/(Perimeter)^2, resulting in a value between 0 (a straight line) and 1 (a perfect circle).

[6] = test system: SK-N-SH neuroblastoma cell line; assay: NO release from SK-N-SH neuroblastoma cells
Experimental: The human SK-N-SH neuroblastoma cell line (ATCC #HTB-11) was used as a cellular model. Cells were propagated in Minimum Essential Medium alpha (MEMα) with 10% fetal bovine serum (FBS), 2% penicillin/streptomycin, 1.5 g/L NaHCO3, and 1.0 mM pyruvic acid. A 5% CO2 incubator (NAPCO) at 37° C. was used for maintenance of temperature and pH. […] When needed, cells were plated in 6- or 12-well plates using a hemocytometer (2×10^5 cells/well in 6-well plates or 1×10^5 cells/well in 12-well plates). Experimental manipulations were performed under sterile conditions under a lamina airflow hood after cells had adhered to the bottom of the plates.

[7] = test system: SK-N-SH neuroblastoma cell line; assay: Cellular morphology (Form Factor) of neuroblastoma cells; type: cell-based, human; conditions: 10 μM
Mytilus animals = assay: TNF-α-induced death of animals; conditions: 10 U/mL TNF-α by injection, after 4 days
Experimental: 100 healthy Mytilus animals were treated with 10 U/mL of TNF-α by injection.

[8] = 1 μM morphine, 10 μM pre-treatment for twenty minutes

Molecule: CC(=O)NC(C(=O)O)C(C)(C)SN=O (racemic) [SNAP, S-Nitroso-N-acetyl-D, L-penicillamine]
- BACE-1 expression (BACE-1; SNAP 1, 5, 10 μM, 4- and 24-hour exposures): reduced BACE-1 expression in a concentration dependent manner
- BACE-2 expression (BACE-2; SNAP 1, 5, 10 μM, 4- and 24-hour timepoints): up regulated in a concentration dependent manner BACE-2 expression

Molecule: N[C@@H](Cc1c[nH]c2ccc(O)cc12)C(=O)O [5-hydroxytryptophan]
- morphine per ganglion wet weight [1]: 2.1±0.41 ng morphine per ganglion
- pedal ganglionic morphine levels after injection [2]: failed to increase ganglionic morphine levels

Molecule: CC(N)(Cc1ccc(O)cc1)C(=O)O (stereo not drawn) [AMPT, alpha-methyl-para-tyrosine]
- effect of enzyme inhibitor on precursor-induced morphine production [1]: less tyrosine-induced morphine production
- morphine levels after injection of inhibitor alone [2]: did not exhibit any change in morphine levels

Molecule: CN1CC[C@]23c4c5ccc(O)c4O[C@H]2[C@@H](O)CC[C@H]3[C@H]1C5 [Dihydromorphine, dihydromorphine]
- NO Peak Level (pedal ganglia): 23.2 ± 3.7 nM
- NO Peak Time (pedal ganglia): 0.9 ± 0.3 min
- IC50 (mu3 opiate receptor): 19.1 ± 3.3 nM

Molecule: N[C@@H](Cc1ccc(O)c(O)c1)C(=O)O [L-DOPA]
- morphine in ganglia [1]: 9.31 ng/mL
- ganglionic morphine levels versus control [1]: significantly higher
- morphine per ganglion wet weight [1]: 3.6±0.45 ng morphine per ganglion
- WBC morphine concentrations versus untreated cells [3]: significantly increased WBC morphine concentrations
- Morphine levels in media after the cells were removed [3]: 1.234 ± 0.26
- morphine concentrations in WBC [3]: 136.5±12.43 pg/million cells
- level of PMN activation (PMNs): 3.7±0.4%
- percent of activated cells in mixed PMN population (PMNs; L-DOPA treated and IL-1β treated PMNs mixed 1:1): 12.5±3.7%
- pedal ganglionic morphine levels after injection [2]: significantly increased pedal ganglionic morphine levels

Molecule: N[C@@H](Cc1ccc(O)cc1)C(=O)O [L-tyrosine]
- ganglionic morphine levels after in vitro incubation [1]: 2.39 ± 0.64 ng/g
- share of added precursor converted to morphine [1]: About 7%
- Morphine levels in media after the cells were removed [3]: 2.223 ± 0.38
- ganglionic morphine levels after injection [2]: 2.46±0.22 ng/g wet weight
- decrease in ganglionic morphine levels when the respective enzyme inhibitor was topically applied [2]: 30%

Molecule: COC1=C[C@]23CCN(C)[C@H](Cc4ccc(OC)c(O)c42)C3=CC1=O [Salutaridine, salutaridine]
- NO Peak Level (pedal ganglia): 18.5 ± 3.3 nM
- NO Peak Time (pedal ganglia): 8.9 ± 1.3 min
- IC50 (mu3 opiate receptor): > 1000 nM

Molecule: Oc1ccc(CC2NCCc3cc(O)c(O)cc32)cc1O (stereo not drawn) [THP, norlaudanosoline]
- ganglionic morphine levels after exposure [1]: significantly enhanced morphine levels
- ganglionic morphine levels versus control [1]: significantly higher
- share of added precursor converted to morphine [1]: About 20%
- WBC morphine concentrations versus untreated cells [3]: significantly increased WBC morphine concentrations
- Morphine levels in media after the cells were removed [3]: 2.028 ± 0.42
- morphine concentrations in WBC [3]: 90.25±10.42 pg/million cells

Molecule: NCCc1ccc(O)cc1 [Tyramine, tyramine]
- ganglionic morphine levels after in vitro incubation [1]: 2.51 ± 0.36 ng/g
- share of added precursor converted to morphine [1]: About 7%
- WBC morphine concentrations versus untreated cells [3]: significantly increased WBC morphine concentrations
- ganglionic DA level after tyramine injection ([4]; from 4.98±0.27): 9.17±1.21 μg/g wet weight
- hemolymph DA level after tyramine ([4]; from 10.13±1.24): 16.47 ± 1.28 µg/mL
- hemolymph DA (FIG. 19 legend) ([4]; tyramine 100 μg/mL incubation, PBS 10.13±0.34): 16.47±2.28 μg of DA/mL
- ganglia DA (FIG. 19 legend) ([4]; tyramine injection 100 μg/animal, PBS 4.78±0.27): 9.17±1.21 μg of DA/g
- ganglionic morphine levels after injection [2]: 3.28±0.45 ng/g wet weight
- decrease in ganglionic morphine levels when the respective enzyme inhibitor was topically applied [2]: 25%

Molecule: CCc1cccc2cc(C(O)CNC(C)(C)C)oc12 (stereo not drawn) [bufuralol]
- effect on precursor-induced morphine synthesis in PMNs [3]: significantly diminished synthesis of morphine

Molecule: COc1ccc2c3c1O[C@H]1[C@@H](O)C=C[C@H]4[C@@H](C2)N(C)CC[C@@]341 [codeine]
- ganglionic morphine levels after exposure [1]: significantly enhanced morphine levels

Molecule: NCCc1ccc(O)c(O)c1 [dopamine]
- morphine in ganglia [1]: 8.82 ng/mL
- ganglionic morphine levels after exposure [1]: significantly enhanced morphine levels

Molecule: CN1CC[C@]23c4c5ccc(O)c4O[C@H]2[C@@H](O)C=C[C@H]3[C@H]1C5.O=S(=O)(O)O [morphine sulfate]
- confluency [5]: about 78%
- peak NO release ([6]; morphine sulfate 5 μM, baseline 2 nM NO): 22.3 nM

Molecule: C=CCN1CC[C@]23c4c5ccc(O)c4O[C@H]2C(=O)CC[C@@]3(O)[C@H]1C5 [naloxone]
- effect of naloxone pre-treatment on reticuline-stimulated NO release (pedal ganglia; naloxone 10^−6 M, reticuline 10^−7 M): blocking the reticuline (10^−7 M) stimulated release of NO
- effect on morphine neuroprotection, Form Factor [7]: reversal in morphine neuroprotection
- NO release induced by 10^−6 M morphine in presence of blocker ([6]; naloxone 10^−6 M, L-NAME 10^−4 M): 3.2 nM NO
- effect of pre-treatment on morphine's effect on BACE-1 expression (BACE-1; [8]): blocked by naloxone
- effect of pre-treatment on morphine's effect on BACE-2 expression (BACE-2; [8]): blocked by naloxone
- level of activation in mixed PMN population, IL-1β-treated cells co-treated with naloxone (PMNs; mixed with L-DOPA-treated PMNs): 35.2±6.3%

Molecule: C=C[C@H]1C[N@@]2CC[C@H]1C[C@@H]2[C@@H](O)c1ccnc2ccc(OC)cc12 [quinidine]
- effect of quinidine on morphine increase by THP, reticuline, DA, or codeine ([1]; quinidine 10^−6 M): significantly blocked by quinidine exposure
- effect of enzyme inhibitor on precursor-induced morphine production [1]: less tyramine-induced morphine production
- effect on precursor-induced morphine synthesis in PMNs [3]: blocked morphine synthesis
- ganglia DA, tyramine and quinidine injections (FIG. 19 legend) ([4]; 100 μg/animal): 2.57±0.32 μg of DA/g
- effect of quinidine on tyramine-induced DA level increases ([4]; ganglionic and hemolymph): blocked by quinidine exposure
- hemolymph DA, tyramine and quinidine exposure (FIG. 19 legend) ([4]; tyramine 100 μg/mL, quinidine 10 μg/mL): 10.24 μg of DA/mL
- morphine levels after injection of inhibitor alone [2]: did not exhibit any change in morphine levels

Molecule: IL-1β: cytokine used to activate PMNs
- level of PMN activation (PMNs): 43.4±5.7%

Molecule: TNF-α
- animals that died (Mytilus animals): about 20%

B1: IFNγ: interferon used to simulate an immune response (protein, UniProt P01579 24-161, looked up)
Interferon gamma: QDPYVKEAENLKKYFNAGHSDVADNGTLFLGILKNWKEESDRKIMQSQIVSFYFKLFKNFKDDQSIQKSVETIKEDMNVKFFNSNKKKRDDFEKLTNYSVTDLNVQRKAIHELIQVMAELSPAAKTGKRKRSQMLFRG
- cellular death ([5]; IFNγ): did not cause significant cellular death
